Results as given in patent publication US9765056B2, “Indole and pyrrole compounds, a process for their preparation and pharmaceutical compositions containing them” (LES LABORATOIRES SERVIER, priority 2013, dated 2017).
Where a name gives a salt, the structure may show the parent alone.

Key:
Bcl-2 protein = Bcl-2 protein (histag-Bcl-2, UniProtKB P10415) (Homo sapiens (Human), UniProt P10415); assay: Inhibition of Bcl-2 by the fluorescence polarisation technique; type: binding; settings: fluorescence polarisation test; method A, or method B where underlined (underlining not visible); read-out: IC50 (nM) Bcl-2 FP
From the text: Inhibition of Bcl-2 by the fluorescence polarisation technique

[1] = test system: RS4;11 leukaemia tumour line; assay: In vitro cytotoxicity, Microculture Tetrazolium Assay (MTT); type: cell-based; settings: Homo sapiens; RS4;11 cells, 48 hours exposure
Method: The cytotoxicity studies were carried out on the RS4;11 leukaemia tumour line.
The cells are distributed onto microplates and exposed to the test compounds for 48 hours. The cell viability is then quantified by a colorimetric assay, the Microculture Tetrazolium Assay (Cancer Res., 1987, 47, 939-942).

[2] = test system: cleaved form of caspase 3; assay: Quantification of the cleaved form of caspase 3 in vivo (MSD ELISA) in RS4;11 xenograft tumour lysates; parameters: species or system mice (SCID strain); settings: oral route
Method: Quantification of the Cleaved Form of Caspase 3 In Vivo
The ability of the compounds of the invention to activate caspase 3 is evaluated in a xenograft model of RS4;11 leukaemia cells.
1×10^7 RS4;11 cells are grafted subcutaneously into immunosuppressed mice (SCID strain). 25 to 30 days after the graft, the animals are treated orally with the various compounds. After treatment, the tumour masses are recovered (after a time period T) and lysed, and the cleaved (activated) form of caspase 3 is quantified in the tumour lysates.
This quantification is carried out using the “Meso Scale Discovery (MSD) ELISA platform” test, which specifically assays the cleaved form of caspase 3. It is expressed in the form of an activation factor corresponding to the ratio between the quantity of cleaved caspase 3 in the treated mice divided by the quantity of cleaved caspase 3 in the control mice.

Sequence of Bcl-2 protein (P10415 whole entry): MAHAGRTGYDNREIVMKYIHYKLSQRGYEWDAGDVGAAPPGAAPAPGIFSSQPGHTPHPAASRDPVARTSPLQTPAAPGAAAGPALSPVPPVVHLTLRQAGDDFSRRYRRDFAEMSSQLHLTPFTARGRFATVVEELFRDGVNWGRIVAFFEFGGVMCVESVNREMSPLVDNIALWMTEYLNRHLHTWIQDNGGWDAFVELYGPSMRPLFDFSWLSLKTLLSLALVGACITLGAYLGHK

Compound | IC50 (Bcl-2 protein) [nM] | IC50 [1] [nM] | Activation factor ± SEM (versus control), cleaved caspase 3 MSD test ([2]; 125 mg/kg, tumour removed after 2 h) | Activation factor ± SEM (versus control), cleaved caspase 3 MSD test ([2]; 25 mg/kg, tumour removed after 2 h) | Activation factor ± SEM (versus control), cleaved caspase 3 MSD test ([2]; 100 mg/kg, tumour removed after 16 h)
Cc1c(C(=O)N(c2ccc(O)cc2)c2cnc3c(c2)CCN3C)cn(-c2cc(Cl)ccc2C(=O)N2Cc3ccccc3C[C@H]2CN2CCOCC2)c1C.Cl [Example 210, 1-(5-Chloro-2-{[(3S)-3-(morpholin-4-ylmethyl)-3,4-dihydroisoquinolin-2(1H)-yl]carbonyl}phenyl)-N-(4-hydroxyphenyl)-4,5-dimethyl-N-(1-methyl-2,3-dihydro-1H-pyrrolo[2,3-b]pyridin-5-yl)-1H-pyrrole-3-carboxamide hydrochloride] | 3.1 | 64.7 | 36.3 ± 13.3 |  | 
Cl.Cn1ccc2cc(N(C(=O)c3cn(-c4cc5c(cc4C(=O)N4Cc6ccccc6C[C@H]4CN4CCOCC4)OCO5)c4c3CCCC4)c3ccc(O)cc3)cnc21 [Example 207, N-(4-Hydroxyphenyl)-N-(1-methyl-1H-pyrrolo[2,3-b]pyridin-5-yl)-1-(6-{[(3S)-3-(morpholin-4-ylmethyl)-3,4-dihydroisoquinolin-2(1H)-yl]carbonyl}-1,3-benzodioxol-5-yl)-4,5,6,7-tetrahydro-1H-indole-3-carboxamide hydrochloride] | 20.3 | 22.2 |  | 14.6 ± 4.4 | 
CN1CCN(C[C@@H]2Cc3ccccc3CN2C(=O)c2ccc(Cl)cc2-n2cc(C(=O)N(c3ccc(O)cc3)c3ccc4[nH]ccc4c3)c3ccccc32)CC1 [Example 72, 1-(5-Chloro-2-{[(3S)-3-[(4-methylpiperazin-1-yl)methyl]-3,4-dihydroisoquinolin-2(1H)-yl]carbonyl}phenyl)-N-(4-hydroxyphenyl)-N-(1H-indol-5-yl)-1H-indole-3-carboxamide] | 4.5 | 43.4 |  |  | 
Cc1cc(C(=O)N(c2ccc(O)cc2)c2ccc3[nH]ccc3c2)cn1-c1cc(Br)ccc1C(=O)N1Cc2ccccc2C[C@H]1C(=O)N1CCN(C)CC1 [Example 101, 1-(5-Bromo-2-{[(3S)-3-[(4-methylpiperazin-1-yl)carbonyl]-3,4-dihydroisoquinolin-2(1H)-yl]carbonyl}phenyl)-N-(4-hydroxyphenyl)-N-(1H-indol-5-yl)-5-methyl-1H-pyrrole-3-carboxamide] | 99.1 | 1880 |  |  | 
CN1CCN(C[C@@H]2Cc3ccccc3CN2C(=O)c2ccc(Br)cc2-n2cc(C(=O)N(c3ccc(O)cc3)c3ccc(O)cc3)c3ccccc32)CC1 [Example 54, 1-(5-Bromo-2-{[(3S)-3-[(4-methylpiperazin-1-yl)methyl]-3,4-dihydroisoquinolin-2(1H)-yl]carbonyl}phenyl)-N,N-bis(4-hydroxyphenyl)-1H-indole-3-carboxamide] | 20 | 103 |  |  | 
NC[C@@H]1Cc2ccccc2CN1C(=O)c1cc(NC(=O)CSc2ccccc2)ccc1-n1nc(C(=O)N(c2ccccc2)c2ccccc2)c2ccccc21 [Example 149, 1-{2-[(3S)-3-(Aminomethyl)-1,2,3,4-tetrahydroisoquinoline-2-carbonyl]-4-[2-(phenylsulphanyl)acetamido]phenyl}-N,N-diphenyl-1H-indazole-3-carboxamide] | 21.6 | 340 |  |  | 
Cc1cc(C(=O)N(c2ccc(O)cc2)c2ccc3c(ccn3C)c2)cn1-c1cc2c(cc1C(=O)N1Cc3ccccc3C[C@H]1CN(C)C)OCO2 [Example 94, 1-(6-{[(3S)-3-[(Dimethylamino)methyl]-3,4-dihydroisoquinolin-2(1H)-yl]carbonyl}-1,3-benzodioxol-5-yl)-N-(4-hydroxyphenyl)-5-methyl-N-(1-methyl-1H-indol-5-yl)-1H-pyrrole-3-carboxamide hydrochloride] | 7.9 | 118 |  |  | 
NC[C@@H]1Cc2ccccc2CN1C(=O)c1cc(NCc2ccccc2)ccc1-n1nc(C(=O)N(c2ccccc2)c2ccccc2)c2ccccc21 [Example 142, 1-{2-[(3S)-3-(Aminomethyl)-1,2,3,4-tetrahydroisoquinoline-2-carbonyl]-4-(benzylamino)phenyl}-N,N-diphenyl-1H-indazole-3-carboxamide] | 70.6 | 2290 |  |  | 
Cc1cc(C(=O)N(c2ccccc2)c2ccccc2)cn1-c1cc(O)ccc1C(=O)N1Cc2ccccc2C[C@H]1CN [Example 6, 1-(2-{[(3S)-3-(Aminomethyl)-3,4-dihydroisoquinolin-2(1H)-yl]-carbonyl}-5-hydroxyphenyl)-5-methyl-N,N-diphenyl-1H-pyrrole-3-carboxamide] | 50.5 | 915 |  |  | 

Further lines, with some results ahead:

IC50 (Bcl-2 protein) [nM] | Compound | IC50 [1] [nM] | Activation factor ± SEM (versus control), cleaved caspase 3 MSD test ([2]; 125 mg/kg, tumour removed after 2 h) | Activation factor ± SEM (versus control), cleaved caspase 3 MSD test ([2]; 25 mg/kg, tumour removed after 2 h) | Activation factor ± SEM (versus control), cleaved caspase 3 MSD test ([2]; 100 mg/kg, tumour removed after 16 h)
14.1 | Cl.O=C(c1cn(-c2cc3c(cc2C(=O)N2Cc4ccccc4C[C@H]2CN2CCOCC2)OCO3)c2ccccc12)N(c1ccccc1)c1ccc(O)cc1 [Example 184, N-(4-Hydroxyphenyl)-1-{6-[(3S)-3-(morpholin-4-ylmethyl)-1,2,3,4-tetrahydroisoquinoline-2-carbonyl]-2H-1,3-benzodioxol-5-yl}-N-phenyl-1H-indole-3-carboxamide hydrochloride] | 154 |  |  | 15.1
286 | NC[C@@H]1Cc2ccccc2CN1C(=O)c1cc2c(cc1-n1cc(C(=O)N(c3ccccc3)c3ccc(O)cc3)c3ccccc31)OCO2 [Example 153, 1-{6-[(3S)-3-(Aminomethyl)-1,2,3,4-tetrahydroisoquinoline-2-carbonyl]-2H-1,3-benzodioxol-5-yl}-N-(4-hydroxyphenyl)-N-phenyl-1H-indole-3-carboxamide] | 237 |  |  | 
5.5 | CN1CCN(C[C@@H]2Cc3ccccc3CN2C(=O)c2cc3c(cc2-n2cc(C(=O)N(c4ccc(O)cc4)c4ccc(Cl)cc4)c4ccccc42)OCO3)CC1 [Example 31, N-(4-Chlorophenyl)-N-(4-hydroxyphenyl)-1-(6-{[(3S)-3-[(4-methylpiperazin-1-yl)methyl]-3,4-dihydroisoquinolin-2(1H)-yl]carbonyl}-1,3-benzodioxol-5-yl)-1H-indole-3-carboxamide] | 71.4 |  |  | 
296 | CC(C)c1ccc(N(C(=O)c2cn(-c3cc4c(cc3C(=O)N3Cc5ccccc5C[C@H]3CN3CCN(C)CC3)OCO4)c3ccccc23)c2ccc(O)c(Cl)c2)cc1 [Example 64, N-(3-Chloro-4-hydroxyphenyl)-1-(6-{[(3S)-3-[(4-methylpiperazin-1-yl)methyl]-3,4-dihydroisoquinolin-2(1H)-yl]carbonyl}-1,3-benzodioxol-5-yl)-N-[4-(propan-2-yl)phenyl]-1H-indole-3-carboxamide hydrochloride] | 1360 |  |  | 
1110 | CN1CCN(C[C@@H]2Cc3ccccc3CN2C(=O)c2cc3c(cc2-n2cc(C(=O)N(CCc4ccccc4)c4ccc(Cl)cc4)c4ccccc42)OCO3)CC1 [Example 36, N-(4-Chlorophenyl)-1-(6-{[(3S)-3-[(4-methylpiperazin-1-yl)methyl]-3,4-dihydroisoquinolin-2(1H)-yl]carbonyl}-1,3-benzodioxol-5-yl)-N-(2-phenylethyl)-1H-indole-3-carboxamide] | 2420 |  |  | 
41.2 | O=C(c1cn(-c2cc3c(cc2C(=O)N2Cc4ccccc4C[C@H]2CN2CCCCC2)OCO3)c2ccccc12)N(c1ccccc1)c1ccc(O)cc1 [Example 174, N-(4-Hydroxyphenyl)-N-phenyl-1-{6-[(3S)-3-(piperidin-1-ylmethyl)-1,2,3,4-tetrahydroisoquinoline-2-carbonyl]-2H-1,3-benzodioxol-5-yl}-1H-indole-3-carboxamide] | 402 |  |  | 
5.4 | Cc1ccc(N(C(=O)c2cn(-c3cc4c(cc3C(=O)N3Cc5ccccc5C[C@H]3CN3CCN(C)CC3)OCO4)c3ccccc23)c2ccc(O)cc2)cc1F [Example 52, N-(3-Fluoro-4-methylphenyl)-N-(4-hydroxyphenyl)-1-(6-{[(3S)-3-[(4-methylpiperazin-1-yl)methyl]-3,4-dihydroisoquinolin-2(1H)-yl]carbonyl}-1,3-benzodioxol-5-yl)-1H-indole-3-carboxamide] | 77.3 |  |  | 
31.1 | CN1CCN(C[C@@H]2Cc3ccccc3CN2C(=O)c2cc3c(cc2-n2cc(C(=O)N(c4ccccc4)c4ccc(O)cc4)c4cc(F)ccc42)OCO3)CC1 [Example 195, 5-Fluoro-N-(4-hydroxyphenyl)-1-{6-[(3S)-3-[(4-methylpiperazin-1-yl)methyl]-1,2,3,4-tetrahydroisoquinoline-2-carbonyl]-2H-1,3-benzodioxol-5-yl}-N-phenyl-1H-indole-3-carboxamide] | 507 |  |  | 
4.4 | CCCCN(C(=O)c1cn(-c2cc3c(cc2C(=O)N2Cc4ccccc4C[C@H]2CN2CCN(C)CC2)OCO3)c2ccccc12)c1ccc(O)cc1 [Example 33, N-Butyl-N-(4-hydroxyphenyl)-1-(6-{[(3S)-3-[(4-methylpiperazin-1-yl)methyl]-3,4-dihydroisoquinolin-2(1H)-yl]carbonyl}-1,3-benzodioxol-5-yl)-1H-indole-3-carboxamide] | 199 |  |  | 
7.8 | CN1CCN(C[C@@H]2Cc3ccccc3CN2C(=O)c2cc3c(cc2-n2cc(C(=O)N(c4ccccc4)c4ccc(O)cc4)c4ccccc42)OCO3)CC1 [Example 164, N-(4-Hydroxyphenyl)-1-{6-[(3S)-3-[(4-methylpiperazin-1-yl)methyl]-1,2,3,4-tetrahydroisoquinoline-2-carbonyl]-2H-1,3-benzodioxol-5-yl}-N-phenyl-1H-indole-3-carboxamide dihydrochloride] | 132 |  |  | 
